According to patent publication US8940310B2, “Methods of treatment using TLR7 and/or TLR9 inhibitors” (Dynavax Technologies Corporation, priority 2010, dated 2015):
Marks after values point to notes of the source that are not given here. [I] = hypoxanthine (inosine)

Key:
[1] = Monomer and tetramer formation of IRPs, size-exclusion HPLC; assay type: physicochemical; conditions: 100 mg/mL in PBS and 0.5M KCl, room temperature, five weeks
Protocol: Solutions were prepared of the by mixing 100 mg/mL of the IRP sequences in PBS and 0.5M KCl and storing at room temperature for three to five weeks. The solutions were subsequently analyzed by size-exclusion HPLC.

[2] = High dosages of IRPs in rats (weight, deaths, histology); assay type: in vivo, Sprague Dawley rats; conditions: rat; for Heart: Cell Vacuolation, number of animals / Heart: Hemorrhage, number of animals / Heart: Mononuclear Cell Infiltration, number of animals / Heart: Necrosis, number of animals / Heart: No significant changes, number of animals / Liver: Liver changes, number of animals / Liver: Mixed cell infiltration, number of animals / Liver: Necrosis, number of animals / Liver: No significant changes, number of animals / Liver: Vacuolation, number of animals / Right Kidney: Hydronephrosis, number of animals / Right Kidney: Mineralization, number of animals / Right Kidney: Necrosis, number of animals / Right Kidney: No significant changes, number of animals / Right Kidney: Tubular basophilia, number of animals / Right Kidney: Tubular changes, number of animals: 6 animals
Protocol: To test the activity of IRPs at high dosages in rats, IRPs (SEQ ID NO:42 and SEQ ID NO:109) or a control (PBS) were subcutaneously administered to 8-9 weeks old, […], 3, 6, and 9 (n=6 per group). Rats were weighed prior to administration and on days 1, 3, 4, 6, 7, and 9. Organs were harvested at the end of the study, and organ weights and tissues levels of the oligonucleotides were determined. In addition, histolocial evaluation of the liver, kidney, and heart was performed.
Rats were weighed prior to administration and on days 1, 3, 6, 7, and 9. Organs were harvested at the end of the study, and organ weights and tissues levels of the oligonucleotides were determined. In addition, histological evaluation of the liver, kidney, and heart was performed.

[3] = High dosages of IRPs in mice (weight, histology); assay type: in vivo, BALB/c mice; conditions: for Liver: Liver changes, number of animals / Liver: Mixed cell infiltration, number of animals / Liver: No significan changes, number of animals / Right Kidney: No significant changes, number of animals / Right Kidney: Tubular basophilia, number of animals / Right Kidney: Tubular changes, number of animals: 6 animals; for Heart: No significant changes, number of animals: tissue missing in two animals
Protocol: To test the activity of IRPs at high dosages in mice, IRPs or a control (saline) were subcutaneously administered to BALB/c mice at a dosage of 4 mg/kg, 20 mg/kg, 50 mg/kg, or 100 mg/kg on days 1, 4, 7, and 10 (n=5 per group). Mice were weighed prior to administration and on days 2, 4, 7, 9, and 11. Serum cytokines were assayed at two hours post the first and third injections and 24 hours post the fourth injection. Organs were harvested at the end of the study, and organ weights and tissues levels of the oligonucleotides were determined. In addition, histological evaluation of the liver, kidney, and heart was performed.
Mice were weighed prior to administration and on days 1, 3, 4, 6, 7, and 9. Organs were harvested at the end of the study, and organ weights and tissues levels of the oligonucleotides were determined. In addition, histological evaluation of the liver, kidney, and heart was performed.

[4] = tested on: human B-cells; assay: Human B-cells cultured in the presence of IRPs, IL-6
Protocol: For the human B-cell assay, B-cells were purified from total blood cells obtained from healthy donors using magnetic beads (CD19 positive). Cells were resuspended in fresh medium (RPMI 1640 with 10% fetal calf serum, 50 units/mL penicillin, 50 μg/mL streptomycin, and 2 mM glutamine). At 48 hours, supernatants were collected and cytokine levels, IL-6, were measured using immunoassay.
To further investigate the effect of IRPs on B-cell stimulatory activity, a wide variety of IRP sequences were assayed for IL-6, along with positive and negative controls. The experiment was performed as described in Example 1 using doses of IRP of either 4.0 μM or 2.0 μM. The positive control was an immunostimulatory sequence (ISS) with SEQ ID NO:157. […] The results are presented as the average normalized IL-6 response over several experiments.

[5] = 10 mg/kg, 0 = no change to 4 = severe
[6] = 90 mg/kg, 0 = no change to 4 = severe
[7] = 50 mg/kg, 0 = no change to 4 = severe
[8] = 100 mg/kg, 0 = no change to 4 = severe

Substance: 5′-TGC TGC TCC TGG AGI GGT GTT GT-3′ (DNA TGCTGCTCCTGGAGNGGTGTTGT; DNA, [I] at 15, backbone and methylation of C not given here) [SEQ ID NO:79]
- fraction in monomer form [1]: 100%
- Heart: Cell Vacuolation, number of animals ([2]; 10 mg/kg): 0
- Heart: Hemorrhage, number of animals ([2]; 10 mg/kg): 0
- Heart: Mononuclear Cell Infiltration, number of animals ([2]; 10 mg/kg): 0
- Heart: Necrosis, number of animals ([2]; 10 mg/kg): 0
- Heart: No significant changes, number of animals ([2]; 10 mg/kg): 6
- Liver: Liver changes, number of animals ([2]; 10 mg/kg): 0
- Liver: Mixed cell infiltration, number of animals ([2]; 10 mg/kg): 6
- Liver: Necrosis, number of animals ([2]; 10 mg/kg): 0
- Liver: No significant changes, number of animals ([2]; 10 mg/kg): 0
- Liver: Vacuolation, number of animals ([2]; 10 mg/kg): 0
- Right Kidney: Hydronephrosis, number of animals ([2]; 10 mg/kg): 0
- Right Kidney: Mineralization, number of animals ([2]; 10 mg/kg): 2
- Right Kidney: Necrosis, number of animals ([2]; 10 mg/kg): 0
- Right Kidney: No significant changes, number of animals ([2]; 10 mg/kg): 1
- Right Kidney: Tubular basophilia, number of animals ([2]; 10 mg/kg): 0
- Right Kidney: Tubular changes, number of animals ([2]; 10 mg/kg): 5
- Liver: Mixed cell infiltration, mean severity score [2, 5]: 1.8
- Right Kidney: Mineralization, mean severity score [2, 5]: 1.0
- Right Kidney: Tubular changes, mean severity score [2, 5]: 1.1
- Heart: cellular vacuolation ([2]; 90 mg/kg): present in some animals
- Heart: hemorrhage and necrosis ([2]; 90 mg/kg): noted
- Kidney: tubular basophilia ([2]; 90 mg/kg): occurred
- Liver: hepatocellular cytoplasmic vacuolation ([2]; 90 mg/kg): hepatocellular cytoplasmic vacuolation
- Liver: hepatocellular necrosis ([2]; 90 mg/kg): hepatocellular necrosis
- Renal necrosis ([2]; 90 mg/kg): noted
- deaths two days after the first dose ([2]; 90 mg/kg SC, n=6): two rats died
- deaths two days after the second dose ([2]; 90 mg/kg SC, n=6): one rat died
- Heart: Cell Vacuolation, number of animals ([2]; 90 mg/kg): 2
- Heart: Hemorrhage, number of animals ([2]; 90 mg/kg): 2
- Heart: Mononuclear Cell Infiltration, number of animals ([2]; 90 mg/kg): 0
- Heart: Necrosis, number of animals ([2]; 90 mg/kg): 3
- Heart: No significant changes, number of animals ([2]; 90 mg/kg): 1
- Liver: Liver changes, number of animals ([2]; 90 mg/kg): 3
- Liver: Mixed cell infiltration, number of animals ([2]; 90 mg/kg): 3
- Liver: Necrosis, number of animals ([2]; 90 mg/kg): 2
- Liver: No significant changes, number of animals ([2]; 90 mg/kg): 0
- Liver: Vacuolation, number of animals ([2]; 90 mg/kg): 3
- Right Kidney: Hydronephrosis, number of animals ([2]; 90 mg/kg): 0
- Right Kidney: Mineralization, number of animals ([2]; 90 mg/kg): 1
- Right Kidney: Necrosis, number of animals ([2]; 90 mg/kg): 3
- Right Kidney: No significant changes, number of animals ([2]; 90 mg/kg): 0
- Right Kidney: Tubular basophilia, number of animals ([2]; 90 mg/kg): 2
- Right Kidney: Tubular changes, number of animals ([2]; 90 mg/kg): 3
- Heart: Cell Vacuolation, mean severity score [2, 6]: 1.5
- Heart: Hemorrhage, mean severity score [2, 6]: 3.5
- Heart: Necrosis, mean severity score [2, 6]: 2.0
- Liver: Liver changes, mean severity score [2, 6]: 1.8
- Liver: Mixed cell infiltration, mean severity score [2, 6]: 2.5
- Liver: Necrosis, mean severity score [2, 6]: 2.8
- Liver: Vacuolation, mean severity score [2, 6]: 2.3
- Right Kidney: Mineralization, mean severity score [2, 6]: 2.0
- Right Kidney: Necrosis, mean severity score [2, 6]: 4.0
- Right Kidney: Tubular basophilia, mean severity score [2, 6]: 2.8
- Right Kidney: Tubular changes, mean severity score [2, 6]: 2.0
- Heart: Chronic inflammation, number of animals ([3]; 50 mg/kg): 2
- Heart: Mineralization, number of animals ([3]; 50 mg/kg): 1
- Heart: Chronic inflammation, mean severity score [3, 7]: 2.0
- Heart: Mineralization, mean severity score [3, 7]: 2.0
- Liver: Liver changes, mean severity score [3, 7]: 1.0
- Liver: Mixed cell infiltration, mean severity score [3, 7]: 1.0
- Liver: Liver changes, number of animals ([3]; 50 mg/kg): 6
- Liver: Mixed cell infiltration, number of animals ([3]; 50 mg/kg): 4
- Liver: No significan changes, number of animals ([3]; 50 mg/kg): 0
- Right Kidney: No significant changes, number of animals ([3]; 50 mg/kg): 6
- Right Kidney: Tubular basophilia, number of animals ([3]; 50 mg/kg): 0
- Right Kidney: Tubular changes, number of animals ([3]; 50 mg/kg): 0
- Heart: No significant changes, number of animals ([3]; 50 mg/kg): 1**
- Heart: Chronic inflammation, number of animals ([3]; 100 mg/kg): 1
- Heart: Mineralization, number of animals ([3]; 100 mg/kg): 2
- Heart: Chronic inflammation, mean severity score [3, 8]: 3.0
- Heart: Mineralization, mean severity score [3, 8]: 2.5
- Liver: Liver changes, mean severity score [3, 8]: 2.0
- Liver: Mixed cell infiltration, mean severity score [3, 8]: 2.0
- Right Kidney: Tubular changes, mean severity score [3, 8]: 2.0
- Liver: Liver changes, number of animals ([3]; 100 mg/kg): 6
- Liver: Mixed cell infiltration, number of animals ([3]; 100 mg/kg): 6
- Liver: No significan changes, number of animals ([3]; 100 mg/kg): 0
- Right Kidney: No significant changes, number of animals ([3]; 100 mg/kg): 0
- Right Kidney: Tubular basophilia, number of animals ([3]; 100 mg/kg): 0
- Right Kidney: Tubular changes, number of animals ([3]; 100 mg/kg): 6
- Heart: No significant changes, number of animals ([3]; 100 mg/kg): 1**
- Normalized IL-6 Response (Percentage of Positive Control) ([4]; Experiment # 1, Max Conc 4.0 uM): 33%
- Normalized IL-6 Response (Percentage of Positive Control) ([4]; Experiment # 3, Max Conc 4.0 uM): 18%
- Normalized IL-6 Response (Percentage of Positive Control) ([4]; Experiment # 11, Max Conc 2.0 uM): 28%
- B-cell stimulatory activity ([4]; FIG. 1C, percent IL-6 from CpG-ISS): low B-cell stimulatory activity
